From patent publication US8242166B2, “C(10) ethyl ester and C(10) cyclopropyl ester substituted taxanes” (Florida State University Research Foundation, Inc., priority 2008, dated 2012)
Read-outs that look alike come from different tables or passages of the source.

Assays:
[1] = system: HT29; assay: MTT cytotoxicity (IC50), HT29; type: cell-based; settings: Homo sapiens, HT-29, 72 h, read-out: IN Vitro IC50 (nm) HT29
Protocol: (§1) Compound 17932 was tested in four of these cell lines, while the remaining compounds were tested in all of these cell lines. All cell lines were maintained in RPMI-1640 tissue culture medium (TCM, supplemented with antibiotics and 10% fetal bovine serum) and cultured at 37° C. in humidified air containing 5% CO2. To assess the antiproliferative effects of the test compounds, 172 μL of tumor cell suspension (1.45×10^4 cells/ml) were added to each well of a 96-well plate and incubated for 24 h at 37° C. in 5% CO2 in air to allow cells to adhere. Seven 2-fold drug dilutions in TCM/DMSO were performed in triplicate in separate 96-well plates and 28 μL was transferred to the wells containing tumor cells (200 μL final volume/0.1% DMSO). Plates were incubated for 72 h and cell viability was determined by adding 50 μL of warm TCM containing 5 mg/mL MTT (3-[4,5-dimethylthiazol-2-yl]-2,5-diphenyltetrazolium bromide) to each well and incubating for 1 h at 37° C. Plates were processed and the absorbances of the resulting solutions were measured by a plate reader at 570 nm. […] (GraphPad Prism version 4.00 for Windows). Studies were conducted by Taxolog, Inc., Tallahassee, Fla.

[2] = system: OVCAR4; assay: MTT cytotoxicity (IC50), OVCAR4; type: cell-based; settings: Homo sapiens, OVCAR-4, 72 h, read-out: IN Vitro IC50 (nm) OVCAR4
Protocol: as §1

[3] = system: OVCAR5; assay: MTT cytotoxicity (IC50), OVCAR5; type: cell-based; settings: Homo sapiens, OVCAR-5, 72 h, read-out: IN Vitro IC50 (nm) OVCAR5
Protocol: as §1

[4] = system: HCT116; assay: MTT cytotoxicity (IC50), HCT116; type: cell-based; settings: Homo sapiens, HCT-116, 72 h, read-out: IN Vitro IC50 (nm) HCT116
Protocol: as §1, with “All” for “Compound 17932 was tested in four of these cell lines, while the remaining compounds were tested in all of these cell lines. All”

[5] = system: SNB-19; assay: MTT cytotoxicity (IC50), SNB-19; type: cell-based; settings: Homo sapiens, 72 h, read-out: IN Vitro IC50 (nm) SNB19
Protocol: as §1

[6] = system: human MX-1 breast carcinoma; assay: MX1 xenograft study e219R1, i.v. single dose (Example 17); settings: for CR (complete regression) / NTR (non-treatment-related death) / PR (partial regression) / TFS (tumor-free survivor) / TR (treatment-related death): n=5
[7] = system: HOP-18; assay: MTT cytotoxicity (IC50), HOP-18; type: cell-based; settings: Homo sapiens, 72 h, read-out: IN Vitro IC50 (nm) HOP18
Protocol: as §1

[8] = system: 786-0; assay: MTT cytotoxicity (IC50), 786-0; type: cell-based; settings: Homo sapiens
Protocol: as §1

[9] = system: PANC-1; assay: MTT cytotoxicity (IC50), PANC-1; type: cell-based; settings: Homo sapiens, 72 h, read-out: IN Vitro IC50 (nm) Panc
Protocol: as §1

[10] = system: HT29 human tumor xenografts; assay: HT29 xenograft study e212, oral and i.v. (Example 26); settings: for CR (complete regression) / NTR NTRa/u / NTR NTRm / PR (partial regression) / TFS (tumor-free survivor) / TR (treatment-related death): n=6
Text: The formulation for oral studies was an ethanol and Cremophor formulation while the formulation for compound 18365 and compound 19244 dosed i.v. was 5% ethanol and 95% Liposyn II 20%.

[11] = system: MALME-3; assay: MTT cytotoxicity (IC50), MALME-3; type: cell-based; settings: Homo sapiens, 72 h, read-out: IN Vitro IC50 (nm) Malme3
Protocol: as §1

[12] = system: BxPC-3 cancer cell line; assay: MTT cytotoxicity (IC50), BxPC-3 (Oncodesign); type: cell-based; settings: Homo sapiens
Protocol: BxPC-3 cancer cell line (Source ATCC) and culture medium were purchased and provided by Oncodesign (France).
Tumor cells (5,000 cells per well) were plated in 96-well flat-bottom microtitration plates (Ref 167008, Batch 083310, Nunc, Dutscher, Brumath, France) and incubated at 37° C. for 24 hours before treatment in 100 μl of drug-free RPMI 1640 medium supplemented with 10% FBS. Tumor cell lines were incubated for 72 hours with 10 concentrations of both test substances and TXT (40 to 0.07 nM using ½ step dilutions). Experiments were repeated three times, each assay being issued from quadruplicate. Control cells were treated with the vehicle alone. At the end of treatments, the cytotoxic activity was evaluated by a MTT assay. These studies were conducted at Oncodesign, France.

[13] = MTT, 72 h, read-out: IN Vitro IC50 (nm) 786-0
[14] = Resistance MDR1+, read-out: 786-0 Renal (Table 4, quantity not named; IC50 values as Table 2)
[15] = 25 mg/kg iv q4d × 4, vehicle EL
[16] = 50 mg/kg po q4d × 4, vehicle EC

CCC(=O)O[C@H]1C(=O)[C@@]2(C)C([C@H](OC(=O)c3ccccc3)[C@]3(O)C[C@H](OC(=O)[C@H](O)[C@@H](NC(=O)OC4CCCC4)c4cccs4)C(C)=C1C3(C)C)[C@]1(OC(C)=O)CO[C@@H]1C[C@@H]2O (stereo partly drawn) [Compound 18926]
IC50 [1]: 400 pM
IC50 [2]: 1000 pM
IC50 [3]: 200 pM
IC50 [4]: 300 pM
IC50 [5]: 1000 pM
% TGD ([6]; 7.5 mg/kg iv qd × 1): 16.46%
BW Nadir ([6]; 7.5 mg/kg iv qd × 1): −7.6% (3)
Median TTE ([6]; 7.5 mg/kg iv qd × 1): 37.43 days
T-C ([6]; 7.5 mg/kg iv qd × 1): 5.29 days
activity (statistical significance) ([6]; 7.5 mg/kg iv qd × 1): non-significant activity
maximum group mean BW loss ([6]; 7.5 mg/kg iv qd × 1): 7.6%
CR (complete regression) ([6]; 7.5 mg/kg iv qd × 1): 0
NTR (non-treatment-related death) ([6]; 7.5 mg/kg iv qd × 1): 0
PR (partial regression) ([6]; 7.5 mg/kg iv qd × 1): 0
TFS (tumor-free survivor) ([6]; 7.5 mg/kg iv qd × 1): 0
TR (treatment-related death) ([6]; 7.5 mg/kg iv qd × 1): 0
% TGD ([6]; 15 mg/kg iv qd × 1): 89.79%
BW Nadir ([6]; 15 mg/kg iv qd × 1): −6.6% (4)
MTV (n), Day 60 ([6]; 15 mg/kg iv qd × 1): 0.00 (4) mm^3
Median TTE ([6]; 15 mg/kg iv qd × 1): 61 days
T-C ([6]; 15 mg/kg iv qd × 1): 28.86 days
maximum group mean BW loss ([6]; 15 mg/kg iv qd × 1): 6.6%
CR (complete regression) ([6]; 15 mg/kg iv qd × 1): 4
NTR (non-treatment-related death) ([6]; 15 mg/kg iv qd × 1): 0
PR (partial regression) ([6]; 15 mg/kg iv qd × 1): 0
TFS (tumor-free survivor) ([6]; 15 mg/kg iv qd × 1): 4
TR (treatment-related death) ([6]; 15 mg/kg iv qd × 1): 0
% TGD ([6]; 30 mg/kg iv qd × 1): 89.79%
BW Nadir ([6]; 30 mg/kg iv qd × 1): −15.5% (5)
MTV (n), Day 60 ([6]; 30 mg/kg iv qd × 1): 0.00 (5) mm^3
Median TTE ([6]; 30 mg/kg iv qd × 1): 61 days
T-C ([6]; 30 mg/kg iv qd × 1): 28.86 days
maximum group mean BW loss ([6]; 30 mg/kg iv qd × 1): 15.5%
CR (complete regression) ([6]; 30 mg/kg iv qd × 1): 5
NTR (non-treatment-related death) ([6]; 30 mg/kg iv qd × 1): 0
PR (partial regression) ([6]; 30 mg/kg iv qd × 1): 0
TFS (tumor-free survivor) ([6]; 30 mg/kg iv qd × 1): 5
TR (treatment-related death) ([6]; 30 mg/kg iv qd × 1): 0
minimal effective dose ([6]; iv qd × 1, lowest dose with statistically significant results and at least one D61 survivor or regression): 15 mg/kg
IC50 [7]: 1600 pM
IC50 [8, 13]: 700 pM
IC50 [8, 14]: 700 pM
IC50 [9]: 500 pM
CR (complete regression) ([10]; 25 mg/kg iv q4d × 4): 5
NTR NTRa/u ([10]; 25 mg/kg iv q4d × 4): 0
NTR NTRm ([10]; 25 mg/kg iv q4d × 4): 0
PR (partial regression) ([10]; 25 mg/kg iv q4d × 4): 0
TFS (tumor-free survivor) ([10]; 25 mg/kg iv q4d × 4): 5
TR (treatment-related death) ([10]; 25 mg/kg iv q4d × 4): 1
% TGD [10, 15]: 237.14%
BW Nadir [10, 15]: 13.5% (17)
MTV (n), Day 59 [10, 15]: 0.00 (5) mm^3
Median TTE [10, 15]: 59 days
T-C [10, 15]: 41.5 days
CR (complete regression) ([10]; 50 mg/kg po q4d × 4): 1
NTR NTRa/u ([10]; 50 mg/kg po q4d × 4): 0
NTR NTRm ([10]; 50 mg/kg po q4d × 4): 0
PR (partial regression) ([10]; 50 mg/kg po q4d × 4): 5
TFS (tumor-free survivor) ([10]; 50 mg/kg po q4d × 4): 1
TR (treatment-related death) ([10]; 50 mg/kg po q4d × 4): 0
% TGD [10, 16]: 237.14%
BW Nadir [10, 16]: 10.4% (17)
MTV (n), Day 59 [10, 16]: 20.25 (6) mm^3
Median TTE [10, 16]: 59 days
T-C [10, 16]: 41.5 days
IC50 [11]: 1800 pM

CCC(=O)O[C@H]1C(=O)[C@@]2(C)C([C@H](OC(=O)c3ccccc3)[C@]3(O)C[C@H](OC(=O)[C@H](O)[C@@H](NC(=O)OC4CCC4)c4cccs4)C(C)=C1C3(C)C)[C@]1(OC(C)=O)CO[C@@H]1C[C@@H]2O (stereo partly drawn) [Compound 19244]
IC50 [1]: 600 pM
IC50 [2]: 2700 pM
IC50 [3]: 600 pM
IC50 [4]: 400 pM
IC50 ([12]; BXPC-3, 72 h, Exp 1, MTT, 72 hours, read-out: IC50 (nM) BxPC-3): 0.53 nM
IC50 ([12]; BXPC-3, 72 h, Exp 2, MTT, 72 hours, read-out: IC50 (nM) BxPC-3): 0.66 nM
IC50 ([12]; BXPC-3, 72 h, Exp 3, MTT, 72 hours, read-out: IC50 (nM) BxPC-3): 1.03 nM
IC50 ([12]; BXPC-3, mean of 3 experiments, read-out: IC50 Mean ± SD (nM) BxPC-3): 0.74 ± 0.26 nM
IC50 [5]: 900 pM
IC50 [7]: 1500 pM
IC50 [8, 13]: 900 pM
IC50 [8, 14]: 900 pM
IC50 [9]: 1200 pM
activity in the HT29 xenograft tumor model ([10]; every four day schedule for four doses): oral and IV activity
IC50 [11]: 1100 pM
